{"source": "PubChem BioAssay AID1963838", "about": "(Molecular Pharmacology Branch, DTP, NCI, 2024);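 note: spheroids exposed to compounds for seven days before readout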", "test_system": "855422-203-R-J1-PDC complex spheroid viability", "assay": "Anticancer human tumor 855422-203-R-J1-PDC patient-derived bladder carcinoma cell line growth inhibition [POLQ]", "details": "for IC50: curve of first compound; for viability, T/C: stronger effect = lower value", "in_short": "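PDC + HUVEC + MSC complex spheroids; POLQ inhibitors ± partner drugs; top conc. at/near clinical Cmax, else 10 microM (SN-38 1 microM), half-log dilutions; 37 degrees C, 5% CO2.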", "key": {"[1]": {"details": "second compound 0.0316 µM, first compound 0.0316 µM"}, "[2]": {"details": "second compound 0.0316 µM, first compound 0.1 µM"}, "[3]": {"details": "second compound 0.0316 µM, first compound 0.316 µM"}, "[4]": {"details": "second compound 0.0316 µM, first compound 1 µM"}, "[5]": {"details": "second compound 0.0316 µM, first compound 3.16 µM"}, "[6]": {"details": "second compound 0.0316 µM, first compound 10 µM"}, "[7]": {"details": "second compound 0.1 µM, first compound 0.0316 µM"}, "[8]": {"details": "second compound 0.1 µM, first compound 0.1 µM"}, "[9]": {"details": "second compound 0.1 µM, first compound 0.316 µM"}, "[10]": {"details": "second compound 0.1 µM, first compound 1 µM"}, "[11]": {"details": "second compound 0.1 µM, first compound 3.16 µM"}, "[12]": {"details": "second compound 0.1 µM, first compound 10 µM"}, "[13]": {"details": "second compound 0.316 µM, first compound 0.0316 µM"}, "[14]": {"details": "second compound 0.316 µM, first compound 0.1 µM"}, "[15]": {"details": "second compound 0.316 µM, first compound 0.316 µM"}, "[16]": {"details": "second compound 0.316 µM, first compound 1 µM"}, "[17]": {"details": "second compound 0.316 µM, first compound 3.16 µM"}, "[18]": {"details": "second compound 0.316 µM, first compound 10 µM"}, "[19]": {"details": "second compound 1 µM, first compound 0.0316 µM"}, "[20]": {"details": "second compound 1 µM, first compound 0.1 µM"}, "[21]": {"details": "second compound 1 µM, first compound 0.316 µM"}, "[22]": {"details": "second compound 1 µM, first compound 1 µM"}, "[23]": {"details": "second compound 1 µM, first compound 3.16 µM"}, "[24]": {"details": "second compound 1 µM, first compound 10 µM"}, "[25]": {"details": "second compound 3.16 µM, first compound 0.0316 µM"}, "[26]": {"details": "second compound 3.16 µM, first compound 0.1 µM"}, "[27]": {"details": "second compound 3.16 µM, first compound 0.316 µM"}, "[28]": {"details": "second compound 3.16 µM, first compound 1 µM"}, "[29]": {"details": "second compound 3.16 µM, first compound 3.16 µM"}, "[30]": {"details": "second compound 3.16 µM, first compound 10 µM"}, "[31]": {"details": "second compound 10 µM, first compound 0.0316 µM"}, "[32]": {"details": "second compound 10 µM, first compound 0.1 µM"}, "[33]": {"details": "second compound 10 µM, first compound 0.316 µM"}, "[34]": {"details": "second compound 10 µM, first compound 1 µM"}, "[35]": {"details": "second compound 10 µM, first compound 3.16 µM"}, "[36]": {"details": "second compound 10 µM, first compound 10 µM"}}}
{"smiles": "C=CC(=O)N1CCN(c2nc(=O)n(-c3c(C)ccnc3C(C)C)c3nc(-c4c(O)cccc4F)c(F)cc23)C(C)C1", "note": "(centres undefined) + Cc1cccc(N(C)C(=O)C2C(O)CCN2c2nc(C)cc(C(F)(F)F)c2C#N)c1", "values": [{"measurement": "IC50", "setting": "second compound 0.0316 µM", "value": "> 10", "unit": "µM"}, {"measurement": "IC50", "setting": "second compound 0.1 µM", "value": "> 10", "unit": "µM"}, {"measurement": "IC50", "setting": "second compound 0.316 µM", "value": "> 10", "unit": "µM"}, {"measurement": "IC50", "setting": "second compound 1 µM", "value": "> 10", "unit": "µM"}, {"measurement": "IC50", "setting": "second compound 3.16 µM", "value": "> 10", "unit": "µM"}, {"measurement": "IC50", "setting": "second compound 10 µM", "value": "> 10", "unit": "µM"}, {"measurement": "viability, T/C", "setting": "[1]", "value": 98.9, "unit": "%"}, {"measurement": "viability, T/C", "setting": "[2]", "value": 112, "unit": "%"}, {"measurement": "viability, T/C", "setting": "[3]", "value": 103, "unit": "%"}, {"measurement": "viability, T/C", "setting": "[4]", "value": 107, "unit": "%"}, {"measurement": "viability, T/C", "setting": "[5]", "value": 121, "unit": "%"}, {"measurement": "viability, T/C", "setting": "[6]", "value": 114, "unit": "%"}, {"measurement": "viability, T/C", "setting": "[7]", "value": 107, "unit": "%"}, {"measurement": "viability, T/C", "setting": "[8]", "value": 105, "unit": "%"}, {"measurement": "viability, T/C", "setting": "[9]", "value": 108, "unit": "%"}, {"measurement": "viability, T/C", "setting": "[10]", "value": 114, "unit": "%"}, {"measurement": "viability, T/C", "setting": "[11]", "value": 121, "unit": "%"}, {"measurement": "viability, T/C", "setting": "[12]", "value": 111, "unit": "%"}, {"measurement": "viability, T/C", "setting": "[13]", "value": 107, "unit": "%"}, {"measurement": "viability, T/C", "setting": "[14]", "value": 89.5, "unit": "%"}, {"measurement": "viability, T/C", "setting": "[15]", "value": 99.7, "unit": "%"}, {"measurement": "viability, T/C", "setting": "[16]", "value": 106, "unit": "%"}, {"measurement": "viability, T/C", "setting": "[17]", "value": 128, "unit": "%"}, {"measurement": "viability, T/C", "setting": "[18]", "value": 121, "unit": "%"}, {"measurement": "viability, T/C", "setting": "[19]", "value": 96.4, "unit": "%"}, {"measurement": "viability, T/C", "setting": "[20]", "value": 108, "unit": "%"}, {"measurement": "viability, T/C", "setting": "[21]", "value": 109, "unit": "%"}, {"measurement": "viability, T/C", "setting": "[22]", "value": 107, "unit": "%"}, {"measurement": "viability, T/C", "setting": "[23]", "value": 133, "unit": "%"}, {"measurement": "viability, T/C", "setting": "[24]", "value": 107, "unit": "%"}, {"measurement": "viability, T/C", "setting": "[25]", "value": 104, "unit": "%"}, {"measurement": "viability, T/C", "setting": "[26]", "value": 96, "unit": "%"}, {"measurement": "viability, T/C", "setting": "[27]", "value": 113, "unit": "%"}, {"measurement": "viability, T/C", "setting": "[28]", "value": 105, "unit": "%"}, {"measurement": "viability, T/C", "setting": "[29]", "value": 118, "unit": "%"}, {"measurement": "viability, T/C", "setting": "[30]", "value": 117, "unit": "%"}, {"measurement": "viability, T/C", "setting": "[31]", "value": 102, "unit": "%"}, {"measurement": "viability, T/C", "setting": "[32]", "value": 108, "unit": "%"}, {"measurement": "viability, T/C", "setting": "[33]", "value": 107, "unit": "%"}, {"measurement": "viability, T/C", "setting": "[34]", "value": 109, "unit": "%"}, {"measurement": "viability, T/C", "setting": "[35]", "value": 123, "unit": "%"}, {"measurement": "viability, T/C", "setting": "[36]", "value": 114, "unit": "%"}]}
{"smiles": "CC(C)n1c(=O)n(C)c2cnc3cc(F)c(-c4ccc(OCCCN5CCCCC5)nc4)cc3c21", "note": "+ Cc1cccc(N(C)C(=O)C2C(O)CCN2c2nc(C)cc(C(F)(F)F)c2C#N)c1", "values": [{"measurement": "IC50", "setting": "second compound 0.0316 µM", "value": "> 10", "unit": "µM"}, {"measurement": "IC50", "setting": "second compound 0.1 µM", "value": "> 10", "unit": "µM"}, {"measurement": "IC50", "setting": "second compound 0.316 µM", "value": "> 10", "unit": "µM"}, {"measurement": "IC50", "setting": "second compound 1 µM", "value": "> 10", "unit": "µM"}, {"measurement": "IC50", "setting": "second compound 3.16 µM", "value": "> 10", "unit": "µM"}, {"measurement": "IC50", "setting": "second compound 10 µM", "value": 6.79, "unit": "µM"}, {"measurement": "viability, T/C", "setting": "[1]", "value": 110, "unit": "%"}, {"measurement": "viability, T/C", "setting": "[2]", "value": 113, "unit": "%"}, {"measurement": "viability, T/C", "setting": "[3]", "value": 97.1, "unit": "%"}, {"measurement": "viability, T/C", "setting": "[4]", "value": 84.5, "unit": "%"}, {"measurement": "viability, T/C", "setting": "[5]", "value": 87.9, "unit": "%"}, {"measurement": "viability, T/C", "setting": "[6]", "value": 57.6, "unit": "%"}, {"measurement": "viability, T/C", "setting": "[7]", "value": 96.1, "unit": "%"}, {"measurement": "viability, T/C", "setting": "[8]", "value": 104, "unit": "%"}, {"measurement": "viability, T/C", "setting": "[9]", "value": 95.4, "unit": "%"}, {"measurement": "viability, T/C", "setting": "[10]", "value": 85.8, "unit": "%"}, {"measurement": "viability, T/C", "setting": "[11]", "value": 91.8, "unit": "%"}, {"measurement": "viability, T/C", "setting": "[12]", "value": 56.3, "unit": "%"}, {"measurement": "viability, T/C", "setting": "[13]", "value": 111, "unit": "%"}, {"measurement": "viability, T/C", "setting": "[14]", "value": 104, "unit": "%"}, {"measurement": "viability, T/C", "setting": "[15]", "value": 99.6, "unit": "%"}, {"measurement": "viability, T/C", "setting": "[16]", "value": 87.4, "unit": "%"}, {"measurement": "viability, T/C", "setting": "[17]", "value": 85.1, "unit": "%"}, {"measurement": "viability, T/C", "setting": "[18]", "value": 60, "unit": "%"}, {"measurement": "viability, T/C", "setting": "[19]", "value": 99.2, "unit": "%"}, {"measurement": "viability, T/C", "setting": "[20]", "value": 92.6, "unit": "%"}, {"measurement": "viability, T/C", "setting": "[21]", "value": 109, "unit": "%"}, {"measurement": "viability, T/C", "setting": "[22]", "value": 94.1, "unit": "%"}, {"measurement": "viability, T/C", "setting": "[23]", "value": 86.4, "unit": "%"}, {"measurement": "viability, T/C", "setting": "[24]", "value": 56.2, "unit": "%"}, {"measurement": "viability, T/C", "setting": "[25]", "value": 109, "unit": "%"}, {"measurement": "viability, T/C", "setting": "[26]", "value": 101, "unit": "%"}, {"measurement": "viability, T/C", "setting": "[27]", "value": 112, "unit": "%"}, {"measurement": "viability, T/C", "setting": "[28]", "value": 97.5, "unit": "%"}, {"measurement": "viability, T/C", "setting": "[29]", "value": 89.3, "unit": "%"}, {"measurement": "viability, T/C", "setting": "[30]", "value": 56, "unit": "%"}, {"measurement": "viability, T/C", "setting": "[31]", "value": 95.9, "unit": "%"}, {"measurement": "viability, T/C", "setting": "[32]", "value": 97.8, "unit": "%"}, {"measurement": "viability, T/C", "setting": "[33]", "value": 99.5, "unit": "%"}, {"measurement": "viability, T/C", "setting": "[34]", "value": 94.2, "unit": "%"}, {"measurement": "viability, T/C", "setting": "[35]", "value": 81.4, "unit": "%"}, {"measurement": "viability, T/C", "setting": "[36]", "value": 33.9, "unit": "%"}]}
